Data as given in patent US8153635B2, “Compounds and compositions as modulators of GPR119 activity” (IRM LLC, priority 2007, dated 2012).

Biological target: T1, human GPR119 (Homo sapiens, UniProt Q8TDV5)
T1 construct: expressed in transfected cells; host or cells: Flp-In-CHO cells (Invitrogen, Cat.# R758-07), stably transfected with hGPR119 in pcDNA5/FRT plus pOG44
T1 sequence (Q8TDV5 1-335): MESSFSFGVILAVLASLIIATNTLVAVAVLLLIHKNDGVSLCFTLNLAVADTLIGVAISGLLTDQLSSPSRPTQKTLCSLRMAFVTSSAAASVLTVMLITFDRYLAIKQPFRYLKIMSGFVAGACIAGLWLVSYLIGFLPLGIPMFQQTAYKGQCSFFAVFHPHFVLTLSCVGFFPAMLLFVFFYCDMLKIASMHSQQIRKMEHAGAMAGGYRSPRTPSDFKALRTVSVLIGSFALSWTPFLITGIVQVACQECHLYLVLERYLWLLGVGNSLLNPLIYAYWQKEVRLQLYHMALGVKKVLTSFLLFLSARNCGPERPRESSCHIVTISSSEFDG
Assay: Cyclic AMP assay in CHO-hGPR119 cells (HTRF)
Format: cell-based
Details: increase in intracellular cAMP; GPR119-transfected CHO cells
Procedure: Flp-In-CHO cells (Invitrogen, Cat.# R758-07) are maintained in Ham's F12 medium supplemented with 10% fetal bovine serum, 1% antibiotic mixture and 2 mM L-glutamine. The cells are transfected with a DNA mixture containing human GPR119 (hGPR119) or mouse GPR119 (mGPR119) in the pcDNA5/FRT vector (Invitrogen) and the pOG44 vector (Invitrogen) in a 1:9 ratio using Fugene6 (Roche), according to the manufacturer's instructions. After 48 hours, the medium is changed to medium supplemented with 400 μg/mL hygromycin B to initiate the selection of stably transfected cells. The resultant cell lines are designated CHO-hGPR119 and CHO-mGPR119 respectively.
To test the activity of compounds of the invention on human GPR119, CHO-hGPR119 cells are harvested and resuspended at 300,000 cells/mL in assay media (Ham's F12 medium plus 3% lipid-depleted fetal bovine serum, 1 mM 3-isobutyl-1-methyl-xanthine (IBMX)). Cells (5 μl) are placed in each well of a white 1536-well plate. A compound of the invention (50 nL) diluted in 100% dimethyl sulfoxide (DMSO) is added to each well and the plates are incubated at 37° C. for 30 minutes. cAMP concentrations are then measured using the cAMP dynamic 2 kit (Cisbio Bioassays) according to the manufacturer's instructions. 2.5 μL of diluted cAMP-XL665 is added to each well, followed by 2.5 μL diluted anti-cAMP-Cryptate. The plate is covered and incubated for one hour at room temperature, then read on an Envision plate reader (Perkin Elmer) using the HTRF method with excitation at 337 nm, and emissions measured at 620 nm and […].

Structure (SMILES) | EC50 [nM]
CC(C)c1noc(N2CCC(COc3ccc(N4CCN(S(C)(=O)=O)CC4)cn3)CC2)n1 [Example E9, 3-Isopropyl-5-(4-((5-(4-(methylsulfonyl)piperazin-1-yl)pyridin-2-yloxy)methyl)piperidin-1-yl)-1,2,4-oxadiazole] | 200 to 800
CC1(OC(=O)N2CCC(COc3cnc(N4CCN(S(=O)(=O)CCCN5CCC5)CC4=O)cn3)CC2)CC1 [Example O9] | < 200
CC1(OC(=O)N2CCC(COc3cnc(N4CCN(S(C)(=O)=O)CC4)cn3)CC2)CC1 [Example E3, 1-Methylcyclopropyl 4-((5-(4-(methylsulfonyl)piperazin-1-yl)pyrazin-2-yloxy)methyl)piperidine-1-carboxylate] | < 200
CCc1cnc(N2CCC(Oc3ccc4c5c(oc4c3)CN(S(C)(=O)=O)CC5)CC2)nc1 [Example V5, 7-(1-(5-Ethylpyrimidin-2-yl)piperidin-4-yloxy)-2-(methylsulfonyl)-1,2,3,4-tetrahydrobenzofuro[2,3-c]pyridine] | < 200
CC(C)OC(=O)N1CCC(CCCOc2ccc(N3CCN(S(C)(=O)=O)CC3)cc2)CC1 [Example A3] | > 800
CC(C)(C)OC(=O)N1CCC(COc2cnc(N3CCCN(S(C)(=O)=O)CC3)cn2)CC1 [Example G1, tert-Butyl 4-((5-(4-(methylsulfonyl)-1,4-diazepan-1-yl)pyrazin-2-yloxy)methyl)piperidine-1-carboxylate] | > 800
CC1(OC(=O)N2CCC(COc3cnc(N4CCN(S(=O)(=O)[C@@H]5CCNC5)CC4=O)cn3)CC2)CC1 [Example O41] | < 200
CC1(OC(=O)N2CCC(COc3cnc(N4CC(NS(C)(=O)=O)C4)cn3)CC2)CC1 [Example U5, 1-Methylcyclopropyl 4-((5-(3-(methylsulfonamido)azetidin-1-yl)pyrazin-2-yloxy)methyl)piperidine-1-carboxylate] | < 200
CC1(OC(=O)N2CCC(COc3cnc(N4CCC(S(C)(=O)=O)CC4)cn3)CC2)CC1 [Example G4, 1-Methylcyclopropyl 4-((5-(4-(methylsulfonyl)piperidin-1-yl)pyrazin-2-yloxy)methyl)piperidine-1-carboxylate] | < 200
CS(=O)(=O)N1CCC(c2ccc(OCC3CCN(c4ccc(Cl)cn4)CC3)cc2)CC1 [Example J22] | < 200
CS(=O)(=O)N1CCC(C(=O)O)(c2ccc(OCC3CCN(c4ncc(F)cn4)CC3)cc2)CC1 [Example T1, 4-(4-((1-(5-fluoropyrimidin-2-yl)piperidin-4-yl)methoxy)phenyl)-1-(methylsulfonyl)piperidine-4-carboxylic acid] | 200 to 800
CC(C)c1nc(N2CCC(COc3ccc(C4=CCN(S(C)(=O)=O)CC4)cc3)CC2)no1 [Example J7] | < 200
CC(C)OC(=O)N1CCC(CCc2ccc(N3CCN(S(C)(=O)=O)CC3)nc2)CC1 [Example D2, Isopropyl 4-(2-(6-(4-(methylsulfonyl)piperazin-1-yl)pyridin-3-yl)ethyl)piperidine-1-carboxylate] | 200 to 800
CC(C)c1noc(N2CCC(CCc3ncc(N4CCN(S(C)(=O)=O)CC4)s3)CC2)n1 [Example I1, 3-Isopropyl-5-(4-(2-(5-(4-(methylsulfonyl)piperazin-1-yl)thiazol-2-yl)ethyl)piperidin-1-yl)-1,2,4-oxadiazole] | < 200
CC(C)OC(=O)N1CCC(COc2ccc(N3CCN(S(C)(=O)=O)CC3)nn2)CC1 [Example C2, Isopropyl 4-((6-(4-(methylsulfonyl)piperazin-1-yl)pyridazin-3-yloxy)methyl)piperidine-1-carboxylate] | > 800
CCc1cnc(N2CCC(CCCc3nc(N4CCN(S(C)(=O)=O)CC4)no3)CC2)nc1 [Example H3, 5-(3-(1-(5-Ethylpyrimidin-2-yl)piperidin-4-yl)propyl)-3-(4-(methylsulfonyl)piperazin-1-yl)-1,2,4-oxadiazole] | < 200
